Data reported in ChEMBL document CHEMBL3638480, “Inhibitors” (2013).

Target: Glutaminyl-peptide cyclotransferase (Homo sapiens, UniProt Q16769)
Assay: Spectrophotometic Assay: Spectrophotometic Assay: This novel assay was used to determine the kinetic parameters for most of the QC substrates. QC activity was analyzed spectrophotometrically using a continuous method, that was derived by adapting a previous discontinuous assay (Bateman, R.C.J. 1989 J Neurosci Methods 30, 23-28).

Sequence of Glutaminyl-peptide cyclotransferase (Q16769 whole entry): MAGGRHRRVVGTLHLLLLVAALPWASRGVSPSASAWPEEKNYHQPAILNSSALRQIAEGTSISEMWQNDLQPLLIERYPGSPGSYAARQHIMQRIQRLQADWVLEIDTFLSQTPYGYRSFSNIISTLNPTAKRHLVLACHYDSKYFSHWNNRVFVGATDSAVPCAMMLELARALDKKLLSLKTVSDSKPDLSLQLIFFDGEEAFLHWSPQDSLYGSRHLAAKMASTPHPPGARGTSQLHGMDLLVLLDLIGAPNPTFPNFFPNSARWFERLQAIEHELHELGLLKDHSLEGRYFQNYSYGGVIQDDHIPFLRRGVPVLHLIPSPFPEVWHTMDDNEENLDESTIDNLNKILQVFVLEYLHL

SMILES | IC50
O=C1NCC(C2CCN(c3ccccc3)CC2)N1c1ccc2nc[nH]c2c1 (centres undefined) | < 10 µM
O=C1NCC(c2ccc(C(F)(F)F)c(F)c2)N1c1ccc2nc[nH]c2c1 (centres undefined) | < 10 µM
O=C1CCC(c2ccc3c(c2)OCCO3)N1c1ccc2[nH]cnc2c1 (centres undefined) | < 10 µM
O=C1NCC(c2ccc(-c3cccc(Cl)c3)cc2)N1c1ccc2[nH]cnc2c1 (centres undefined) | < 10 µM
COc1cc(C2CNC(=O)N2c2ccc3[nH]cnc3c2)ccc1F (centres undefined) | < 10 µM
O=C1NCC(c2ccc(Cl)c(Cl)c2)N1c1ccc2nc[nH]c2c1 (centres undefined) | < 10 µM
O=C1NCC(c2cc(F)cc(C(F)(F)F)c2)N1c1ccc2[nH]cnc2c1 (centres undefined) | < 10 µM
O=C1NCC(c2ccc(N3CCN(c4ccccc4)CC3)cc2)N1c1ccc2nc[nH]c2c1 (centres undefined) | < 10 µM
O=C1NCC(c2ccc(N3CCOCC3)c(Cl)c2)N1c1ccc2nc[nH]c2c1 (centres undefined) | < 10 µM
O=C1NCC(c2c(F)cccc2F)N1c1ccn2ccnc2c1 (centres undefined) | < 10 µM
O=C1NCC(c2ccccc2F)N1c1ccc2[nH]cnc2c1 (centres undefined) | < 10 µM
CCCOc1ccc(C2CN(Cc3ccc4ccccc4c3)C(=O)N2c2ccc3[nH]cnc3c2)cc1 (centres undefined) | < 10 µM
O=C1NCC(c2ccc(-c3ccc(Cl)c(Cl)c3)cc2)N1c1ccc2nc[nH]c2c1 (centres undefined) | < 10 µM
CCCCOc1ccc(C2CNC(=O)N2c2ccc3nc[nH]c3c2)cc1 (centres undefined) | < 10 µM
CCCOc1ccc(C2CN(Cc3ccccc3)C(=O)N2c2ccc3[nH]cnc3c2)cc1 (centres undefined) | < 10 µM
O=C1NCC(c2cccc(Cl)c2)N1c1ccc2nc[nH]c2c1 (centres undefined) | < 10 µM
O=C1NCC(c2cccc(-c3cccc(Cl)c3)c2)N1c1ccc2[nH]cnc2c1 (centres undefined) | < 10 µM
O=C1NCC(c2ccc(OC3CCCCC3)cc2)N1c1ccc2[nH]cnc2c1 (centres undefined) | < 10 µM

SMILES | IC50
COc1cc(C2CNC(=O)N2c2ccc3[nH]cnc3c2)cc2c1OCO2 (centres undefined) | < 10 µM
O=C1OC[C@H](c2ccc(OCCN3CCOCC3)cc2)N1c1ccc2[nH]cnc2c1 | < 10 µM
O=C1OC[C@H](c2cc(F)cc(C(F)(F)F)c2)N1c1ccc2nc[nH]c2c1 | < 10 µM
O=C1OC[C@H](c2ccc3c(c2)OCO3)N1c1ccc2nc[nH]c2c1 | < 10 µM
COc1ccc([C@H]2[C@@H](C)NC(=O)N2c2ccc3nc[nH]c3c2)cc1 | < 10 µM
O=C1OC[C@H](c2cccc(F)c2)N1c1ccc2[nH]cnc2c1 | < 10 µM
CN1CCN(c2ccc([C@H]3COC(=O)N3c3ccc4nc[nH]c4c3)cc2)CC1 | < 10 µM
O=C1OC[C@H](c2cccc(F)c2F)N1c1ccc2nc[nH]c2c1 | < 10 µM
O=C1OC[C@H](c2ccc3c(c2)OCCO3)N1c1ccc2nc[nH]c2c1 | < 10 µM
CN(C)CCOc1ccc([C@H]2CNC(=O)N2c2ccc3[nH]cnc3c2)cc1 | < 10 µM
O=C1OC[C@H](c2cccc(-c3cccc(Cl)c3)c2)N1c1ccc2nc[nH]c2c1 | < 10 µM
O=C1OC[C@H](c2ccc(OCCN3CCNCC3)cc2)N1c1ccc2[nH]cnc2c1 | < 10 µM
O=C1OC[C@H](c2cccc(Cl)c2)N1c1ccc2nc[nH]c2c1 | < 10 µM
O=C1OC[C@H](c2ccc(-c3cccc(Cl)c3)cc2)N1c1ccc2nc[nH]c2c1 | < 10 µM
O=C1OC[C@H](c2ccccc2)N1c1ccc2[nH]cnc2c1 | < 10 µM
Cc1nc2ccc(N3C(=O)OC[C@@H]3c3ccccc3)cc2[nH]1 | < 10 µM
O=C1OC[C@H](c2ccc(Cl)cc2)N1c1ccc2nc[nH]c2c1 | < 10 µM
O=C1OC[C@H](c2cccc(N3CCN(c4ccccc4)CC3)c2)N1c1ccc2nc[nH]c2c1 | < 10 µM

Second part, the compound after the results:

IC50 | SMILES
< 10 µM | O=C1NCC(c2ccc(OCCCN3CCOCC3)cc2)N1c1ccc2nc[nH]c2c1 (centres undefined)
< 10 µM | O=C1NCC(c2ccc(OCCN3CCOCC3)cc2)N1c1ccn2ccnc2c1 (centres undefined)
< 10 µM | COc1ccc(C2CNC(=O)N2c2ccc3nc[nH]c3c2)cc1F (centres undefined)
< 10 µM | CCOc1ccc(C2CNC(=O)N2c2ccc3[nH]cnc3c2)cc1 (centres undefined)
< 10 µM | O=C1NCC(c2ccccc2Cl)N1c1ccc2nc[nH]c2c1 (centres undefined)
< 10 µM | O=C1NCC(c2ccc(C(F)(F)F)cc2F)N1c1ccc2[nH]cnc2c1 (centres undefined)
< 10 µM | COCCCc1ccc(C2CNC(=O)N2c2ccc3[nH]cnc3c2)cc1 (centres undefined)
< 10 µM | O=C1NCC(c2ccc(OC(F)(F)C(F)F)cc2)N1c1ccc2[nH]cnc2c1 (centres undefined)
< 10 µM | O=C1NCC(c2cccc(F)c2)N1c1ccc2nc[nH]c2c1 (centres undefined)
< 10 µM | COc1cccc(C2CNC(=O)N2c2ccc3nc[nH]c3c2)c1 (centres undefined)
< 10 µM | O=C1NCC(c2ccc(N3CCN(c4ccccc4)CC3)cc2)N1c1ccn2ccnc2c1 (centres undefined)
< 10 µM | COc1cc(F)c(C2CNC(=O)N2c2ccn3ccnc3c2)c(F)c1 (centres undefined)
< 10 µM | CCCOc1ccc(C2CN(CCCc3ccccc3)C(=O)N2c2ccc3[nH]cnc3c2)cc1 (centres undefined)
< 10 µM | O=C1NCC(c2ccc(F)cc2)N1c1ccc2[nH]cnc2c1 (centres undefined)
< 10 µM | O=C1NCC(c2cc(C(F)(F)F)ccc2F)N1c1ccc2[nH]cnc2c1 (centres undefined)
< 10 µM | CCCOc1ccc(C2CCC(=O)N2c2ccc3[nH]cnc3c2)cc1 (centres undefined)
< 10 µM | CCCCCOc1ccc(C2CNC(=O)N2c2ccc3nc[nH]c3c2)cc1 (centres undefined)
< 10 µM | O=C1NCC(c2ccc(O)cc2)N1c1ccc2[nH]cnc2c1 (centres undefined)
< 10 µM | CC(C)Oc1ccc(C2CNC(=O)N2c2ccc3nc[nH]c3c2)cc1 (centres undefined)
< 10 µM | O=C1NCC(c2cccc(Cl)c2Cl)N1c1ccc2nc[nH]c2c1 (centres undefined)
< 10 µM | CCCOc1ccc(C2CN(CCc3ccccc3)C(=O)N2c2ccc3[nH]cnc3c2)cc1 (centres undefined)
< 10 µM | O=C1c2ccccc2C(c2ccc(Cl)cc2)N1c1ccc2[nH]cnc2c1 (centres undefined)

IC50 | SMILES
< 10 µM | O=C1NCC(c2c(Cl)cccc2Cl)N1c1ccc2nc[nH]c2c1 (centres undefined)
< 10 µM | COc1cc(C2CNC(=O)N2c2ccn3ccnc3c2)cc2c1OCO2 (centres undefined)
< 10 µM | O=C1NCC(c2ccc(-c3ccccc3)c(F)c2)N1c1ccc2[nH]cnc2c1 (centres undefined)
< 10 µM | COc1cc(F)c(C2CNC(=O)N2c2ccc3nc[nH]c3c2)c(F)c1 (centres undefined)
< 10 µM | O=C1NCC(c2ccccc2OCCN2CCOCC2)N1c1ccc2nc[nH]c2c1 (centres undefined)
< 10 µM | COCCOc1ccc(C2CNC(=O)N2c2ccc3[nH]cnc3c2)cc1 (centres undefined)
< 10 µM | CCCOc1ccc([C@H]2[C@H](c3ccccc3)OC(=O)N2c2ccc3[nH]cnc3c2)cc1
< 10 µM | O=C1NCC(c2c(F)cccc2F)N1c1ccc2[nH]cnc2c1 (centres undefined)
< 10 µM | COc1ccccc1C1CNC(=O)N1c1ccc2[nH]cnc2c1 (centres undefined)
< 10 µM | O=C1NCC(C2CCC(c3ccccc3)CC2)N1c1ccc2nc[nH]c2c1 (centres undefined)
< 10 µM | COc1ccc(C2CN(N)C(=O)N2c2ccc3[nH]cnc3c2)cc1 (centres undefined)
< 10 µM | COc1ccc(C2CCC(=O)N2c2ccc3[nH]cnc3c2)cc1 (centres undefined)
< 10 µM | O=C1NCC(c2ccc(-c3ccccc3)c(F)c2)N1c1ccn2ccnc2c1 (centres undefined)
< 10 µM | CC1(C)OC(=O)N(c2ccc3nc[nH]c3c2)[C@H]1c1ccccc1
< 10 µM | CCCOc1ccc(C2CNC(=O)N2c2ccc3[nH]cnc3c2)cc1F (centres undefined)
< 10 µM | O=C1NCC(c2cccc(-c3ccccc3)c2)N1c1ccc2[nH]cnc2c1 (centres undefined)
< 10 µM | O=C1NCC(c2ccc3c(c2)OC(F)(F)O3)N1c1ccc2[nH]cnc2c1 (centres undefined)
< 10 µM | O=C1NCC(c2ccc(OCCN3CCOCC3)cc2)N1c1ccc2nc[nH]c2c1 (centres undefined)
< 10 µM | O=C1c2ccccc2[C@H](c2ccc(Cl)cc2)N1c1ccc2[nH]cnc2c1
< 10 µM | O=C1NCC(c2ccc3c(c2)OCCO3)N1c1ccc2[nH]cnc2c1 (centres undefined)
< 10 µM | C[C@@H]1OC(=O)N(c2ccc3nc[nH]c3c2)[C@H]1c1ccccc1
